≈ marks a conversion by molar mass, not a printed value.

In ChEMBL document CHEMBL1240358, “Activity of a new antipseudomonal cephalosporin, CXA-101 (FR264205), against carbapenem-resistant and multidrug-resistant Pseudomonas aeruginosa clinical strains” (2010) one finds MIC and Activity data, which are given here for 9 molecules.

What all share (assay type): functional
Experiment [1] relates to Pseudomonas aeruginosa. Description: Antibacterial activity against carbapenem-resistant Pseudomonas aeruginosa isolate 1C3 PTOL1 harboring acquired beta-lactamase OXA-17 by broth microdilution method. In general terms: Dilution methods test growth across graded concentrations, often in twofold steps.
Experiment [2] has as its system Pseudomonas aeruginosa. Description: Antibacterial activity against carbapenem-resistant Pseudomonas aeruginosa isolate 1E3 PpA2 harboring acquired beta-lactamase OXA-101 by broth microdilution method.
Experiment [3] concerns Pseudomonas aeruginosa. Description: Antibacterial activity against carbapenem-resistant Pseudomonas aeruginosa isolate 1E2 PpA1 harboring acquired beta-lactamase OXA-144 by broth microdilution method.
The test system of experiment [4] is Pseudomonas aeruginosa. Description: Antibacterial activity against carbapenem-resistant Pseudomonas aeruginosa isolate 1C2 PTOL1 harboring beta-lactamase OXA-17 by broth microdilution method.
Experiment [5] deals with Pseudomonas aeruginosa. Description: Antibacterial activity against Pseudomonas aeruginosa assessed as percent nonsusceptible isolates by broth microdilution assay.
For experiment [6], the system named is Pseudomonas aeruginosa. Description: Antibacterial activity against carbapenem-resistant Pseudomonas aeruginosa isolate 1B2 RCA2 harboring acquired beta-lactamase PER-1 by broth microdilution method.
In experiment [7] the test system is Pseudomonas aeruginosa. Description: Antibacterial activity against carbapenem-resistant Pseudomonas aeruginosa isolate 3C1 VAL6 by broth microdilution method.
Experiment [8] concerns Pseudomonas aeruginosa. Description: Antibacterial activity against carbapenem-resistant Pseudomonas aeruginosa isolate 1E1 PpA1 harboring acquired beta-lactamase OXA-144 by broth microdilution method.
For experiment [9], the system named is Pseudomonas aeruginosa. Description: Antibacterial activity against carbapenem-resistant Pseudomonas aeruginosa isolate 3D2 GM2 harboring acquired beta-lactamase BEL-3 by broth microdilution method.
The subject of experiment [10] is Pseudomonas aeruginosa. Description: Antibacterial activity against carbapenem-resistant Pseudomonas aeruginosa isolate 3C9 GM1 harboring acquired beta-lactamase OXA-144 by broth microdilution method.
Experiment [11] relates to Pseudomonas aeruginosa. Description: Antibacterial activity against carbapenem-resistant Pseudomonas aeruginosa isolate 3C8 GM1 harboring acquired beta-lactamase OXA-144 by broth microdilution method.
Experiment [12] concerns Pseudomonas aeruginosa. Description: Antibacterial activity against carbapenem-resistant Pseudomonas aeruginosa isolate 1D5 SA1 harboring acquired beta-lactamase VIM-2 by broth microdilution method.
In experiment [13] the test system is Pseudomonas aeruginosa. Description: Antibacterial activity against Pseudomonas aeruginosa PAO1 harboring acquired beta-lactamase OXA-144 by broth microdilution method.
Experiment [14] relates to Pseudomonas aeruginosa. Description: Antibacterial activity against Pseudomonas aeruginosa PAO1 harboring acquired beta-lactamase OXA-2 by broth microdilution method.
For experiment [15], the system named is Pseudomonas aeruginosa. Description: Antibacterial activity against Pseudomonas aeruginosa PAO1 by broth microdilution method.

As to `O=C(O)c1cn(C2CC2)c2cc(N3CCNCC3)c(F)cc2c1=O` [CIPROFLOXACIN], the MIC was 4 µg/mL (≈ 12.1 µM) against Pseudomonas aeruginosa [1], 1 µg/mL (≈ 3.02 µM) against Pseudomonas aeruginosa [2], 16 µg/mL (≈ 48.3 µM) with Pseudomonas aeruginosa [3] and 4 µg/mL (≈ 12.1 µM) in the experiment on Pseudomonas aeruginosa [4].
In the case of `NCC[C@H](O)C(=O)N[C@@H]1C[C@H](N)[C@@H](O[C@H]2O[C@H](CN)[C@@H](O)[C@H](O)[C@H]2O)[C@H](O)[C@H]1O[C@H]1O[C@H](CO)[C@@H](O)[C@H](N)[C@H]1O` [AMIKACIN], the MIC in the experiment on Pseudomonas aeruginosa [1] came to 32 µg/mL (≈ 54.6 µM); with Pseudomonas aeruginosa [6], 1 µg/mL (≈ 1.71 µM); in the experiment on Pseudomonas aeruginosa [2], 32 µg/mL (≈ 54.6 µM); in the experiment with Pseudomonas aeruginosa [3], 32 µg/mL (≈ 54.6 µM); against Pseudomonas aeruginosa [4], 32 µg/mL (≈ 54.6 µM); against Pseudomonas aeruginosa [7], 2 µg/mL (≈ 3.42 µM). In addition, the MIC amounted to 16 µg/mL (≈ 27.3 µM) in the experiment with Pseudomonas aeruginosa [8]; 8 µg/mL (≈ 13.7 µM) in the experiment on Pseudomonas aeruginosa [9]; 4 µg/mL (≈ 6.83 µM) against Pseudomonas aeruginosa [10]; 4 µg/mL (≈ 6.83 µM) in the experiment with Pseudomonas aeruginosa [11]; 16 µg/mL (≈ 27.3 µM) against Pseudomonas aeruginosa [12]. In the experiment with Pseudomonas aeruginosa [5], the Activity was found to be 18.6%.
Consider GENTAMICIN, for which, in the experiment on Pseudomonas aeruginosa [5], the Activity amounted to 58.9%.
`CC(C)(O/N=C(\C(=O)N[C@@H]1C(=O)N2C(C(=O)[O-])=C(C[n+]3ccccc3)CS[C@H]12)c1csc(N)n1)C(=O)O` [CEFTAZIDIME]: the MIC in the experiment on Pseudomonas aeruginosa [1] is greater than 64 µg/mL; against Pseudomonas aeruginosa [6], greater than 64 µg/mL; in the experiment with Pseudomonas aeruginosa [2] it was 64 µg/mL (≈ 117 µM); in the experiment on Pseudomonas aeruginosa [3], greater than 64 µg/mL; against Pseudomonas aeruginosa [4] it was greater than 64 µg/mL; with Pseudomonas aeruginosa [13], greater than 64 µg/mL. In addition, the MIC with Pseudomonas aeruginosa [7] was greater than 64 µg/mL; in the experiment with Pseudomonas aeruginosa [8] it was greater than 64 µg/mL; against Pseudomonas aeruginosa [14], 4 µg/mL (≈ 7.32 µM); with Pseudomonas aeruginosa [9], greater than 64 µg/mL; against Pseudomonas aeruginosa [10] it was 32 µg/mL (≈ 58.5 µM); in the experiment with Pseudomonas aeruginosa [11], 32 µg/mL (≈ 58.5 µM). Further, the figures for the minimum inhibitory concentration (MIC) against Pseudomonas aeruginosa [12] and in the experiment with Pseudomonas aeruginosa [15] were 16 µg/mL (≈ 29.3 µM) and 1 µg/mL (≈ 1.83 µM), respectively. The Activity with Pseudomonas aeruginosa [5] turned out to be 46.2%.
As for `C[C@@H](O)[C@H]1C(=O)N2C(C(=O)O)=C(SCCNC=N)C[C@H]12` [IMIPENEM ANHYDROUS], the MIC in the experiment with Pseudomonas aeruginosa [1] was greater than 64 µg/mL; in the experiment on Pseudomonas aeruginosa [6], 64 µg/mL (≈ 214 µM); in the experiment on Pseudomonas aeruginosa [2] it was 16 µg/mL (≈ 53.4 µM); in the experiment with Pseudomonas aeruginosa [3] it was greater than 64 µg/mL; in the experiment with Pseudomonas aeruginosa [4], greater than 64 µg/mL; in the experiment on Pseudomonas aeruginosa [13], 1 µg/mL (≈ 3.34 µM). The MIC with Pseudomonas aeruginosa [7] was greater than 64 µg/mL; against Pseudomonas aeruginosa [8], greater than 64 µg/mL; against Pseudomonas aeruginosa [14] it was 1 µg/mL (≈ 3.34 µM); in the experiment on Pseudomonas aeruginosa [9], 64 µg/mL (≈ 214 µM); in the experiment with Pseudomonas aeruginosa [10] it was greater than 64 µg/mL; against Pseudomonas aeruginosa [11] it was greater than 64 µg/mL. In addition, the MIC with Pseudomonas aeruginosa [12] was greater than 64 µg/mL; against Pseudomonas aeruginosa [15] it was 1 µg/mL (≈ 3.34 µM). In addition, the Activity in the experiment on Pseudomonas aeruginosa [5] is listed as 33.9%.
As to `C[C@@H](O)[C@H]1C(=O)N2C(C(=O)O)=C(S[C@@H]3CN[C@H](C(=O)N(C)C)C3)[C@H](C)[C@H]12` [MEROPENEM], the Activity with Pseudomonas aeruginosa [5] amounted to 52.1%. Moreover, the MIC came to 16 µg/mL (≈ 41.7 µM) against Pseudomonas aeruginosa [6]; 32 µg/mL (≈ 83.4 µM) against Pseudomonas aeruginosa [3]; 0.5 µg/mL (≈ 1.3 µM) against Pseudomonas aeruginosa [13]; 4 µg/mL (≈ 10.4 µM) in the experiment on Pseudomonas aeruginosa [7]; 16 µg/mL (≈ 41.7 µM) with Pseudomonas aeruginosa [8]; 0.5 µg/mL (≈ 1.3 µM) against Pseudomonas aeruginosa [14]. Also, the MIC turned out to be 4 µg/mL (≈ 10.4 µM) in the experiment with Pseudomonas aeruginosa [9]; 4 µg/mL (≈ 10.4 µM) with Pseudomonas aeruginosa [10]; 4 µg/mL (≈ 10.4 µM) in the experiment on Pseudomonas aeruginosa [11]; 16 µg/mL (≈ 41.7 µM) against Pseudomonas aeruginosa [12]; 0.25 µg/mL (≈ 0.652 µM) against Pseudomonas aeruginosa [15].
Consider `NC[C@H]1O[C@H](O[C@H]2[C@H](O)[C@@H](O[C@H]3O[C@H](CO)[C@@H](O)[C@H](N)[C@H]3O)[C@H](N)C[C@@H]2N)[C@H](N)C[C@@H]1O` [TOBRAMYCIN], for which the MIC with Pseudomonas aeruginosa [1] is 64 µg/mL (≈ 137 µM); against Pseudomonas aeruginosa [6], less than 0.12 µg/mL; with Pseudomonas aeruginosa [2], greater than 64 µg/mL; in the experiment with Pseudomonas aeruginosa [3], 64 µg/mL (≈ 137 µM); against Pseudomonas aeruginosa [4] it was 32 µg/mL (≈ 68.4 µM); in the experiment on Pseudomonas aeruginosa [7] it was less than 0.12 µg/mL. The MIC is 64 µg/mL (≈ 137 µM) with Pseudomonas aeruginosa [8]; 8 µg/mL (≈ 17.1 µM) in the experiment with Pseudomonas aeruginosa [9]; 16 µg/mL (≈ 34.2 µM) in the experiment with Pseudomonas aeruginosa [10]; 16 µg/mL (≈ 34.2 µM) in the experiment on Pseudomonas aeruginosa [11]; 64 µg/mL (≈ 137 µM) in the experiment with Pseudomonas aeruginosa [12]. The Activity with Pseudomonas aeruginosa [5] is reported as 33.9%.
Turning to `CCN1CCN(C(=O)N[C@@H](C(=O)N[C@@H]2C(=O)N3[C@@H]2SC(C)(C)[C@@H]3C(=O)O)c2ccccc2)C(=O)C1=O` [PIPERACILLIN], the Activity in the experiment on Pseudomonas aeruginosa [5] stood at 28.4%. Moreover, the MIC against Pseudomonas aeruginosa [13] came out at 16 µg/mL (≈ 30.9 µM); in the experiment on Pseudomonas aeruginosa [14], 32 µg/mL (≈ 61.8 µM); in the experiment with Pseudomonas aeruginosa [15], 4 µg/mL (≈ 7.73 µM).
As for `CO/N=C(\C(=O)N[C@@H]1C(=O)N2C(C(=O)[O-])=C(C[N+]3(C)CCCC3)CS[C@H]12)c1csc(N)n1`, the MIC is greater than 64 µg/mL in the experiment on Pseudomonas aeruginosa [1]; greater than 64 µg/mL in the experiment on Pseudomonas aeruginosa [2]; 32 µg/mL (≈ 66.6 µM) against Pseudomonas aeruginosa [3]; greater than 64 µg/mL against Pseudomonas aeruginosa [4]; 8 µg/mL (≈ 16.6 µM) with Pseudomonas aeruginosa [13]; 64 µg/mL (≈ 133 µM) in the experiment on Pseudomonas aeruginosa [7]. In addition, the MIC came to 16 µg/mL (≈ 33.3 µM) with Pseudomonas aeruginosa [8]; 2 µg/mL (≈ 4.16 µM) in the experiment with Pseudomonas aeruginosa [14]; 32 µg/mL (≈ 66.6 µM) against Pseudomonas aeruginosa [9]; 4 µg/mL (≈ 8.32 µM) in the experiment on Pseudomonas aeruginosa [10]; 4 µg/mL (≈ 8.32 µM) with Pseudomonas aeruginosa [11]; 16 µg/mL (≈ 33.3 µM) with Pseudomonas aeruginosa [12]. This molecule also yielded an MIC in the experiment on Pseudomonas aeruginosa [15] of 1 µg/mL (≈ 2.08 µM). Also, in the experiment with Pseudomonas aeruginosa [5], the Activity stood at 68.2%.

By MIC is commonly meant the lowest concentration found to suppress growth.
